In PubChem BioAssay AID1918952 (Molecular Pharmacology Branch, DTP, NCI, 2023):

Test system: LG0703-F948-PDC complex spheroid viability
Experiment: Anticancer human tumor LG0703-F948-PDC patient-derived lung adenocarcinoma cell line growth inhibition
Details: for IC50: curve of first compound; for viability, T/C: stronger effect = lower value
In short: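 Complex spheroids of tumor cells with HUVEC and human MSCs, exposed to iadademstat combined with other agents. Each agent tested in half-log steps from near clinical Cmax (else 10 microM top), DMSO ≤0.25%.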

[1] = second compound 0.1 µM, first compound 0.00949 µM
[2] = second compound 0.1 µM, first compound 0.03 µM
[3] = second compound 0.1 µM, first compound 0.0949 µM
[4] = second compound 0.1 µM, first compound 0.3 µM
[5] = second compound 0.1 µM, first compound 0.949 µM
[6] = second compound 0.1 µM, first compound 3 µM
[7] = second compound 0.316 µM, first compound 0.00949 µM
[8] = second compound 0.316 µM, first compound 0.03 µM
[9] = second compound 0.316 µM, first compound 0.0949 µM
[10] = second compound 0.316 µM, first compound 0.3 µM
[11] = second compound 0.316 µM, first compound 0.949 µM
[12] = second compound 0.316 µM, first compound 3 µM
[13] = second compound 1 µM, first compound 0.00949 µM
[14] = second compound 1 µM, first compound 0.03 µM
[15] = second compound 1 µM, first compound 0.0949 µM
[16] = second compound 1 µM, first compound 0.3 µM
[17] = second compound 1 µM, first compound 0.949 µM
[18] = second compound 1 µM, first compound 3 µM
[19] = second compound 3.16 µM, first compound 0.00949 µM
[20] = second compound 3.16 µM, first compound 0.03 µM
[21] = second compound 3.16 µM, first compound 0.0949 µM
[22] = second compound 3.16 µM, first compound 0.3 µM
[23] = second compound 3.16 µM, first compound 0.949 µM
[24] = second compound 3.16 µM, first compound 3 µM
[25] = second compound 10 µM, first compound 0.00949 µM
[26] = second compound 10 µM, first compound 0.03 µM
[27] = second compound 10 µM, first compound 0.0949 µM
[28] = second compound 10 µM, first compound 0.3 µM
[29] = second compound 10 µM, first compound 0.949 µM
[30] = second compound 10 µM, first compound 3 µM
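Also: spheroids exposed to agents for seven days before readout.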
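For viability, T/C in this document: 100% = DMSO vehicle control wells as normalization base.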

| Compound | IC50 (second compound 0.1 µM) [nM] | IC50 (second compound 0.316 µM) [nM] | IC50 (second compound 1 µM) [nM] | IC50 (second compound 3.16 µM) [nM] | IC50 (second compound 10 µM) [nM] | viability, T/C [1] [%] | viability, T/C [2] [%] | viability, T/C [3] [%] | viability, T/C [4] [%] | viability, T/C [5] [%] | viability, T/C [6] [%] | viability, T/C [7] [%] | viability, T/C [8] [%] | viability, T/C [9] [%] | viability, T/C [10] [%] | viability, T/C [11] [%] | viability, T/C [12] [%] | viability, T/C [13] [%] | viability, T/C [14] [%] | viability, T/C [15] [%] | also measured |
| --- | --- | --- | --- | --- | --- | --- | --- | --- | --- | --- | --- | --- | --- | --- | --- | --- | --- | --- | --- | --- | --- |
| NS(=O)(=O)OCC1CC(n2ccc3c(NC4CCc5ccccc54)ncnc32)CC1O (stereo not given) + NC1CC1c1ccc(-c2cccc(O)c2)cc1 | 683 | 582 | 559 | 559 | 302 | 101 | 113 | 104 | 75.2 | 40.9 | 19 | 118 | 104 | 105 | 73.9 | 31.9 | 21.6 | 107 | 117 | 103 | viability, T/C [16]: 68%; viability, T/C [17]: 35.6%; viability, T/C [18]: 18.6%; viability, T/C [19]: 110%; viability, T/C [20]: 105%; viability, T/C [21]: 98.4%; viability, T/C [22]: 70.4%; viability, T/C [23]: 32.6%; viability, T/C [24]: 16%; viability, T/C [25]: 107%; viability, T/C [26]: 104%; viability, T/C [27]: 81.2%; viability, T/C [28]: 50.8%; viability, T/C [29]: 23.8%; viability, T/C [30]: 12.6% |
| Nc1ccccc1NC(=O)c1ccc(CNC(=O)OCc2cccnc2)cc1 + NC1CC1c1ccc(-c2cccc(O)c2)cc1 | 94.8 | 90.7 | 79.7 | 99 | 63 | 96.4 | 85.7 | 49.5 | 14.9 | 1.36 | 0.66 | 86 | 74.1 | 50.6 | 7.98 | 0.56 | 0.86 | 80.9 | 76.7 | 45.1 | viability, T/C [16]: 8.53%; viability, T/C [17]: 0.73%; viability, T/C [18]: 0.8%; viability, T/C [19]: 87.2%; viability, T/C [20]: 80.4%; viability, T/C [21]: 52.2%; viability, T/C [22]: 6.55%; viability, T/C [23]: 0.23%; viability, T/C [24]: 0.32%; viability, T/C [25]: 95.3%; viability, T/C [26]: 68.7%; viability, T/C [27]: 42.5%; viability, T/C [28]: 7.86%; viability, T/C [29]: 0.67%; viability, T/C [30]: 0.19% |
| O=C(C=Cc1cccc(S(=O)(=O)Nc2ccccc2)c1)NO + NC1CC1c1ccc(-c2cccc(O)c2)cc1 | 61.1 | 70.6 | 70.9 | 74.5 | 95.3 | 113 | 74.8 | 35.9 | 8.61 | 1.29 | 0.28 | 113 | 83.5 | 39.5 | 8.31 | 1.3 | 1.01 | 107 | 93.9 | 34.8 | viability, T/C [16]: 7.01%; viability, T/C [17]: 1.57%; viability, T/C [18]: 0.1%; viability, T/C [19]: 92.3%; viability, T/C [20]: 80.8%; viability, T/C [21]: 42.2%; viability, T/C [22]: 6.95%; viability, T/C [23]: 1.69%; viability, T/C [24]: 0.15%; viability, T/C [25]: 90%; viability, T/C [26]: 86.7%; viability, T/C [27]: 50%; viability, T/C [28]: 7.51%; viability, T/C [29]: 1.22%; viability, T/C [30]: 1.1% |
